Test results: US11524960B2, “Heterobicyclic inhibitors of MAT2A and methods of use for treating cancer” (AGIOS PHARMACEUTICALS, INC., priority 2018, dated 2022)

How the values were obtained:
[1] = target: T1, MAT2A homodimer (Homo sapiens, UniProt P31153); experiment: Biochemical assay: inhibition of MAT2A (phosphate release, PiColorLock Gold); conditions: MAT2A IC50 score; read-out: Enzyme Inhibition (Example 275)
T1 construct: inferred from Ni sepharose purification and imidazole elution; made in house; host or cells: Sf9 insect cells, recombinant baculovirus (Bac to Bac, pFASTBAC1)
T1 sequence (P31153 whole entry): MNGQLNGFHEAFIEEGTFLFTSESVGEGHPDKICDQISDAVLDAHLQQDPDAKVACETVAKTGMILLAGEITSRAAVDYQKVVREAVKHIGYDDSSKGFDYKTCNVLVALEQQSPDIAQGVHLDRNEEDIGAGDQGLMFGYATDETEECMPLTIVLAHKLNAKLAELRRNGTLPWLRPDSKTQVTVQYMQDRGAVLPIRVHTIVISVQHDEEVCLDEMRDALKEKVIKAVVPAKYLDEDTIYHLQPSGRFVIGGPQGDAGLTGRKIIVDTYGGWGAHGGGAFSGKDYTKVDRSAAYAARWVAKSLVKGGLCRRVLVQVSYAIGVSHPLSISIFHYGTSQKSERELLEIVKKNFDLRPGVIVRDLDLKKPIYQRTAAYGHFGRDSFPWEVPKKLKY
In short: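 Baculovirus/Sf9-expressed, Ni-purified MAT2A at 4 µg/mL was preincubated with compound for 60 min at 25 °C in 50 mM Tris pH 8.0, 50 mM KCl, 15 mM MgCl2, 0.3 mM EDTA, 0.005% BSA. Substrate mix (500 μM ATP, 400 μM L-methionine) was added and the reaction ran 60 min at 25 °C. Phosphate released stoichiometrically with SAM was measured colorimetrically against a phosphate standard curve.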

[2] = system: SAM in HCT116 human colon carcinoma cell line engineered to delete the MTAP gene (MTAP −/−); experiment: Cellular assay of target engagement (SAM) by LC-MS/MS; assay type: cell-based; conditions: Homo sapiens, HCT-116, 72 h, IC50 score, read-out: Cell 72 h SAM Inhibition (MTAP −/−; Example 276)
Procedure: Measurement of MAT2A activity in cells was made by direct quantitation of the abundance of the product of its enzymatic activity, SAM. Cancer cells were treated with candidate MAT2A inhibitors for a suitable incubation period, and the cells were then lysed using a reagent which quenched any further enzyme activity. Soluble metabolites including SAM were collected and SAM itself was directly measured from the lysate using quantitative LC-MS/MS.
A typical assay was performed using an HCT116 human colon carcinoma cell line which was genetically engineered to delete the MTAP gene (commercially available from Horizon Discovery). This cell line was utilized because it was determined that loss of the MTAP gene predicts sensitivity to MAT2A inhibitors. Cells were plated in 96-well dishes at appropriate cell density. Following 24 hours, cells were then treated with the candidate MAT2A inhibitor. Prior to addition to cells, the compound was first serially diluted in 100% DMSO, typically as a 3-fold serial dilution starting at 500× top dose with 10 dose points including DMSO only control. Compound was then transferred to a working stock plate in cell culture media by adding 5 μl of compound in DMSO to 495 μl of cell culture media. This working stock was then added to cells via a further 5-fold dilution, by adding 25 μl of working stock to 100 μl of cells in culture media. Following compound addition, cells were incubated at 37° C./5% CO2 for 72 hrs.
To quantitate SAM levels following compound treatment, cells were gently washed once in Ammonium Carbonate buffer (75 mM at pH 7.4), placed on dry ice, and lysed with metabolite extraction buffer (80% cold methanol and 20% water (v/v) with acetic acid at 1 M final concentration with 200 ng/mL deuterated d3-SAM as internal control). Following centrifugation at 4° C. at 3,200 rpm for 30 minutes, the supernatant was collected and stored at −80° C. until analysis by Liquid Chromatography with tandem Mass Spectrometry (LC-MS/MS). LC-MS/MS analysis was performed using an API6500 Mass Spectrometer (Sciex, Framingham, Mass., USA) operating in positive ion spray mode and equipped with a Waters UPLC Acquity (Waters, Milford, Mass., USA) BEH Amide column. Multiple Reaction Monitoring data was acquired for SAM and the d3-SAM standard, using a mass transition pair at m/z 399.2→250.1 and 402.2→250.1, respectively. In a typical LC-MS/MS analysis, the initial flow rate was 0.5 ml/min of 25% mobile phase A (acetonitrile and water at 5:95 (v/v) with 1% formic acid and 10 mM ammonium acetate) and 75% mobile phase B (acetonitrile and water at 95:5 (v/v) with 1% formic acid and 10 mM ammonium acetate), 0.2-0.5 minutes with 75%-35% mobile phase B, 25%-65% mobile phase A, at 0.5 min 65% mobile phase A and 35% mobile phase B, 1.0-1.1 minutes with 35%-75% mobile phase B, 65%-25% mobile phase A, at 1.1 min 25% mobile phase A and 75% mobile phase B with a total run time of 1.5 minutes.

[3] = system: HCT116 MTAP−/−; experiment: Inhibition of cellular proliferation (Cell Titer Glo), HCT116 MTAP−/−; assay type: cell-based, human; conditions: Homo sapiens, HCT-116, 96 h, 4 days, IC50 score, read-out: 4 Day Relative Growth Inhibition (MTAP −/−; Example 277)
Procedure: (§1) Test compound impact on cancer cell growth was assessed by treating cancer cells with compound for 4 days and then measuring proliferation using an ATP-based cell proliferation readout (Cell Titer Glo, Promega Corporation).
(§2) In a typical assay an isogenic pair of HCT116 human colon carcinoma cell lines which vary only in MTAP deletion status (HCT116 MTAP+/+ and HCT116 MTAP−/−) were plated in 96-well dishes at appropriate cell density. Following 24 hours, cells were then treated with the candidate MAT2A inhibitor. Prior to addition to cells, the compound was first serially diluted in 100% DMSO, typically as a 3-fold serial dilution starting at 500× top dose with 10 dose points including DMSO only control. Compound was then transferred to a working stock plate in cell culture media by adding 5 μl of compound in DMSO to 495 μl of cell culture media. This working stock was then added to cells via a further 5-fold dilution, by adding 25 μl of working stock to 100 μl of cells in culture media. Following compound addition, cells were incubated at 37° C./5% C02 for 4 days.
(§3) To measure inhibition of cellular proliferation, cells were allowed to equilibrate to room temperature for 30 minutes, and were then treated with 125 μl of Cell Titer Glo reagent. The plate was then covered with aluminum foil and shaken for 15 minutes to ensure complete mixing and full cell lysis. Luminescent signal was then measured using a plate-based luminometer Veritas version 1.9.2 using ATP standard curve to confirm assay reproducibility from run to run. This luminescence measure was converted to a proliferation index by subtracting from each data point the ATP luminescence signal measured from a bank (no cells) well and dividing by the ATP luminescence signal measured in 0.2% DMSO control well adjusted for signal in blank well. Compound activity was then represented as a percentage change in proliferation relative to a within-plate DMSO control against log10 of compound concentration in molar (M) units.

[4] = system: HCT116 MTAP+/+; experiment: Inhibition of cellular proliferation (Cell Titer Glo), HCT116 MTAP+/+; assay type: cell-based, human; conditions: Homo sapiens, HCT-116, 96 h, 4 days, IC50 score, read-out: 4 Day Relative Growth Inhibition (MTAP +/+; Example 277)
Procedure: as §1, §2, §3

Row | Compound | IC50 [1] | IC50 [2] | IC50 [3] | IC50 [4]
1 | O=c1c(-c2ccc(OC(F)F)cc2)c2nc(NC3CCC3)ncc2cn1-c1ccc2ncccc2c1 [Example 183, 2-(cyclobutylamino)-8-(4-(difluoromethoxy)phenyl)-6-(quinolin-6-yl)pyrido[4,3-d]pyrimidin-7(6)-one] | < 100 nM | 100 to 1000 nM | 100 to 10000 nM | > 10000 nM
2 | CCOc1ccc2cn(-c3ccc4ncn(C)c4c3)c(=O)c(-c3ccc(C(F)(F)F)cc3)c2n1 [Example 227, 2-ethoxy-6-(1-methyl-1H-benzo[d]imidazol-6-yl)-8-(4-(trifluoromethyl)phenyl)-1,6-naphthyridin-7(6H)-one] | < 100 nM | < 100 nM | < 100 nM | 100 to 10000 nM
3 | Cn1cc2cc(-n3cc4cnc(NCC(F)(F)F)nc4c(-c4ccc(Cl)cc4)c3=O)ccc2n1 [Example 123, 8-(4-chlorophenyl)-6-(2-methyl-2H-indazol-5-yl)-2-((2,2,2-trifluoroethyl)amino)pyrido[4,3-d]pyrimidin-7(6H)-one] | < 100 nM | < 100 nM | < 100 nM | 100 to 10000 nM
4 | CCNc1ncc2cn(-c3ccc(OC)cc3)c(=O)c(-c3ccc(Br)cc3)c2n1 [Example 188, 8-(4-bromophenyl)-2-(ethylamino)-6-(4-methoxyphenyl)pyrido[4,3-d]pyrimidin-7(6H)-one] | < 100 nM | < 100 nM | 100 to 10000 nM | > 10000 nM
5 | Cn1cc2cc(-n3cc4ccc(OCC(F)(F)F)nc4c(-c4ccc(OC(F)(F)F)nc4)c3=O)ccc2n1 [Example 131-A] | < 100 nM | < 100 nM | 100 to 10000 nM | 100 to 10000 nM
6 | COc1ccc(-n2cc3cnc(NCC(F)(F)F)nc3c(-c3ccc(CCO)cc3)c2=O)cc1 [Example 205, 8-(4-(2-hydroxyethyl)phenyl)-6-(4-methoxyphenyl)-2-(2,2,2-trifluoroethylamino)pyrido[4,3-d]pyrimidin-7(6H)-one] | < 100 nM | < 100 nM | 100 to 10000 nM | > 10000 nM
7 | Cn1cc2cc(-n3cc4ccc(OCC(F)(F)F)nc4c(-c4ccc(C5CC5)nc4)c3=O)ccc2n1 [Example 113-A] | < 100 nM | < 100 nM | < 100 nM | 100 to 10000 nM
8 | O=c1c(-c2ccc(C3CC3)cc2)c2nc(NCC(F)(F)F)ncc2cn1-c1ccc2ncsc2c1 [Example 166, 6-(benzo[d]thiazol-6-yl)-8-(4-cyclopropylphenyl)-2-((2,2,2-trifluoroethyl)amino)pyrido[4,3-d]pyrimidin-7(6)-one] | < 100 nM | < 100 nM | < 100 nM | > 10000 nM
9 | O=c1c(-c2ccc(Cl)cc2)c2nc(NCC(F)(F)F)ncc2cn1-c1ccc2ncsc2c1 [Example 129, 6-(benzo[d]thiazol-6-yl)-8-(4-chlorophenyl)-2-(2,2,2-trifluoroethylamino)pyrido[4,3-d]pyrimidin-7(6H)-one] | < 100 nM | 100 to 1000 nM | 100 to 10000 nM | > 10000 nM
10 | Cn1cc2cc(-n3cc4ccc(NC5CC5)nc4c(-c4ccc(OC(F)F)cc4)c3=O)ccc2n1 [Example 242, 2-(cyclopropylamino)-8-(4-(difluoromethoxy)phenyl)-6-(2-methyl-2H-indazol-5-yl)-1,6-naphthyridin-7(6H)-one] | < 100 nM | < 100 nM | < 100 nM | > 10000 nM
11 | CCOc1cnc2cn(-c3ccc4ncccc4c3)c(=O)c(-c3ccc(Cl)cc3)c2n1 [Example 142-A] | < 100 nM | 100 to 1000 nM | 100 to 10000 nM | > 10000 nM
12 | O=c1c(-c2ccc(-c3nc[nH]n3)cc2)c2nc(OCC(F)(F)F)ncc2cn1-c1ccc2ncccc2c1 [Example 268, 8-(4-(H-1,2,4-triazol-3-yl)phenyl)-6-(quinolin-6-yl)-2-(2,2,2-trifluoroethoxy)pyrido[4,3-d]pyrimidin-7(6H)-one] | < 100 nM | 100 to 1000 nM | 100 to 10000 nM | > 10000 nM
13 | CCOc1ccc2cn(-c3ccc4nnccc4c3)c(=O)c(-c3ccc(Cl)cc3)c2n1 [Example 245, 8-(4-chlorophenyl)-6-(cinnolin-6-yl)-2-ethoxy-1,6-naphthyridin-7(6H)-one] | < 100 nM | < 100 nM | 100 to 10000 nM | > 10000 nM
14 | CCOc1ccc2cn(-c3ccc4nn(C)cc4c3)c(=O)c(-c3ccc(CF)nc3)c2n1 [Example 137-A, 2-ethoxy-8-(6-(fluoromethyl)pyridin-3-yl)-6-(2-methyl-2H-indazol-5-yl)-1,6-naphthyridin-7(6H)-one] | < 100 nM | < 100 nM | < 100 nM | 100 to 10000 nM
15 | CCOc1ncc2cn(-c3ccc4nn(C)cc4c3)c(=O)c(-c3ccc(Cl)cc3)c2n1 [Example 270, 8-(4-chlorophenyl)-2-ethoxy-6-(2-methyl-2H-indazol-5-yl)pyrido[4,3-d]pyrimidin-7(6H)-one] | < 100 nM | < 100 nM | < 100 nM | > 10000 nM
16 | Cn1cc2cc(-n3cc4ccc(NCC(F)(F)F)nc4c(-c4ccc(OC(F)(F)F)cc4)c3=O)ccc2n1 [Example 211, 6-(2-methyl-2H-indazol-5-yl)-2-((2,2,2-trifluoroethyl)amino)-8-(4-(trifluoromethoxy)phenyl)-1,6-naphthyridin-7(6H)-one] | < 100 nM | < 100 nM | < 100 nM | > 10000 nM
17 | CCOc1ccc2cn(-c3ccc4nn(C)cc4c3)c(=O)c(-c3ccc(C)nc3)c2n1 [Example 219, 2-ethoxy-6-(2-methyl-2H-indazol-5-yl)-8-(6-methylpyridin-3-yl)-1,6-naphthyridin-7(6H)-one] | < 100 nM | < 100 nM | < 100 nM | 100 to 10000 nM
18 | Cn1cnc2ccc(-n3cc4ccc(OCC(F)(F)F)nc4c(-c4ccc(Cl)cc4)c3=O)cc21 [Example 255, 8-(4-chlorophenyl)-6-(1-methyl-1H-benzo[d]imidazol-6-yl)-2-(2,2,2-trifluoroethoxy)-1,6-naphthyridin-7(6H)-one] | < 100 nM | < 100 nM | < 100 nM | > 10000 nM
